Holding throughout (assay): DTP human tumour cell line panel, 48 h
Assay [1] concerns DMS-114.
The test system of assay [2] is DMS-273.
For assay [3], the system named is KM-20L2.
Assay [4] relates to LXFL 529.
Assay [5] has as its system M19-MEL.
Assay [6] has as its system RXF 631.
Assay [7] deals with XF498.
The subject of assay [8] is DLD-1.
Assay [9] concerns SNB-78.

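48-hour exposure; five concentrations; linearly interpolated endpoints. GI50 is the concentration that inhibits growth by half.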 Calls of active or inactive are those of the source. No stated cut-off is given here; in the data, active = GI50 up to about 1.1 µM and inactive = higher.

Broadly, the GI50 is the concentration that inhibits growth by half.

With `CN1c2ccccc2N(C(=O)c2ccccc2)C(CC(=O)O)c2cccn21` (configuration not stated), the GI50 in [1], in assay [2], in assay [3], in assay [4], in assay [5] and in [6] was > 100 µM (inactive) throughout. In [7], the GI50 was > 100 µM (inactive).

Consider `COC(CN1C=C(Sc2ccccc2)CC1)OC`, for which the GI50 in [8] was 29 µM (inactive); in assay [1], 23.2 µM (inactive); in assay [3], 38.8 µM (inactive); in assay [5], 31.8 µM (inactive); in [9], 34.3 µM (inactive); in assay [7], 22.4 µM (inactive).

For the molecule `CCCCCCCCOCC(CO)OCCCCCCCC` (configuration not stated), the GI50 in assay [8] was 18 µM (inactive); in [1] it was 21.2 µM (inactive); in assay [2], 18.7 µM (inactive); in assay [3], > 10 µM (inactive); in assay [4] it was 18.9 µM (inactive); in assay [5] it was 20 µM (inactive). For the same molecule, the GI50 in assay [6] was 17.7 µM (inactive).

Take `Cn1cc(NC(=O)c2cc(NC(=O)Nc3cc(C(=O)Nc4cc(C(=O)NCCC(=N)N)n(C)c4)n(C)c3)cn2C)cc1C(=O)NCCC(=N)N`: the GI50 in assay [8] was > 100 µM (inactive); in assay [1] it was 49.3 µM (inactive); in [2], 13.6 µM (inactive); in [3], 60.5 µM (inactive); in [4] it was 56.5 µM (inactive); in [5] it was 20.4 µM (inactive). Moreover, the GI50 was 23.1 µM (inactive) in assay [6], 38.5 µM (inactive) in [9] and 21 µM (inactive) in assay [7].

Take `CCOC(=O)C(=O)CC1=Nc2ccccc2SC(c2cccc(C)c2)C1` (configuration not stated): the GI50 was 17.8 µM (inactive) in assay [8]; 14.9 µM (inactive) in assay [1]; 19.6 µM (inactive) in assay [2]; 17.9 µM (inactive) in assay [3]; 18.1 µM (inactive) in assay [4]; 18.8 µM (inactive) in assay [5]. The GI50 in assay [6] and in assay [9] was 16 µM (inactive) each time.

Take `CCc1cccc(C(C)C)c1NC(=O)C(=O)C1C(=O)NC(=O)NC1=O`: the GI50 in [8], in [1], in assay [3], in [4], in [5] and in assay [7] was > 100 µM (inactive) throughout.

On to `CC1CC(=O)C(C(O)CC2CC(=O)N(c3ccccc3)C(=O)C2)C(C)C1` (configuration not stated), for which the GI50 in assay [8], in [1], in [2], in assay [3], in [4] and in assay [5] was > 100 µM (inactive) throughout. Besides, in assay [9], the GI50 was > 100 µM (inactive).

Consider `COC(=O)C(Cc1cc(OC)c(OC)c(OC)c1)c1ccc(OC)cc1` (configuration not stated), for which the GI50 is > 100 µM (inactive) in assay [8]; 62.4 µM (inactive) in assay [1]; > 100 µM (inactive) in assay [2]; > 100 µM (inactive) in [3]; 54.7 µM (inactive) in assay [4]; > 100 µM (inactive) in assay [5]. Also, the GI50 in [6] and in assay [9] was > 100 µM (inactive) each time.

In the case of `CC(C)(C)C[P+](C)(C)c1ccccc1`, the GI50 is > 100 µM (inactive) in [8]; > 100 µM (inactive) in assay [1]; > 100 µM (inactive) in [2]; 83 µM (inactive) in assay [3]; > 100 µM (inactive) in [4]; > 100 µM (inactive) in assay [5]. The GI50 in assay [6] and in assay [9] was > 100 µM (inactive) in each case.

On to `Cc1ccc(-n2c(=S)[nH]c3ccc(Br)cc3c2=O)cc1`, for which the GI50 in assay [8] was 67.9 µM (inactive); in [1] it was > 100 µM (inactive); in [3], > 100 µM (inactive); in assay [4] it was > 100 µM (inactive); in [5], > 100 µM (inactive); in assay [7], > 100 µM (inactive).

Consider `CC(=O)O[C@]12CCC[C@H]1C1(O)C(O)CCC[C@H]12` (some centres not stated), for which the GI50 in assay [1], in assay [2], in assay [3], in [4], in assay [5] and in assay [9] was > 100 µM (inactive) in each case. Also, the GI50 in assay [7] is > 100 µM (inactive).

Take `N#CC(C(=O)CCCC(=O)Nc1ccc(Cl)cc1Cl)c1ccccc1` (configuration not stated): the GI50 in assay [8], in [1], in [2], in assay [3], in assay [5] and in assay [6] was > 100 µM (inactive) throughout. The GI50 in [9] was > 100 µM (inactive).

For `CCOC(OC1=C(C#N)CCCC1)C(CC)[Se]c1ccccc1` (configuration not stated), the GI50 in [8] was 16.1 µM (inactive); in [1] it was 4.1 µM (inactive); in [2], 12 µM (inactive); in [3] it was 25.1 µM (inactive); in assay [4], 19.4 µM (inactive); in assay [5] it was 19.4 µM (inactive). Further, the GI50 in assay [6] was 11.3 µM (inactive); in assay [9], 33.8 µM (inactive); in [7], 20.4 µM (inactive).

As for `COc1ccc2nccc(NCCCN3CCN(CCCNc4ccnc5ccc(OC)cc45)CC3)c2c1`, the GI50 was 0.843 µM (active) in assay [8]; 0.128 µM (active) in assay [1]; 0.418 µM (active) in assay [2]; 0.703 µM (active) in [3]; 0.179 µM (active) in assay [4]; 0.652 µM (active) in assay [5]. Moreover, the concentration for 50% growth inhibition (GI50) in assay [9] was 0.873 µM (active); in assay [7] it was 0.201 µM (active).

As for `COC(=O)/C(C#N)=C1\NN=NN1c1ccc(OC)cc1`, the GI50 in assay [8], in [1], in assay [2], in [4], in assay [5] and in assay [6] was > 100 µM (inactive) in each case. In assay [9], the GI50 is > 100 µM (inactive).

Turning to `O=C(CSc1nc(-c2ccccc2)c(-c2ccccc2)[nH]1)NNC(=S)Nc1ccccc1`, the GI50 in assay [8] is 96.4 µM (inactive); in assay [1], 57 µM (inactive); in assay [2], 92.7 µM (inactive); in assay [3] it was > 100 µM (inactive); in assay [4] it was > 100 µM (inactive); in [5], 91.6 µM (inactive). In addition, the GI50 was > 100 µM (inactive) in [9] and 61.9 µM (inactive) in assay [7].

Turning to `CCOC(OC1=C(C#N)CCC1)C(C)[Se]c1ccccc1` (configuration not stated), the GI50 in assay [8] was 30.5 µM (inactive); in [1], 4.06 µM (inactive); in [2], 14.5 µM (inactive); in assay [3], 45.4 µM (inactive); in [4], 17.2 µM (inactive); in [5], 14.8 µM (inactive). Also, the GI50 is 11.1 µM (inactive) in assay [6] and 29.8 µM (inactive) in assay [9].

`Cc1ccc(S(=O)(=O)c2c(N)c3nc4ccccc4n3c3nc4ccccc4nc23)cc1`: the GI50 in [8], in [1], in [2], in [3], in [4] and in assay [5] was > 100 µM (inactive) each time. The GI50 in assay [6] is > 100 µM (inactive).

As for `C/C=C(/CCCCNCCCC)[Si](C)(C)C`, the GI50 was 14.6 µM (inactive) in assay [8]; 14.6 µM (inactive) in [1]; 18.4 µM (inactive) in assay [2]; 7.52 µM (inactive) in assay [3]; 15.9 µM (inactive) in assay [4]; 16.8 µM (inactive) in assay [5]. Further, the figures for the GI50 in assay [6], in assay [9] and in [7] were 15 µM (inactive), 14.2 µM (inactive) and 11.3 µM (inactive), respectively.

With `CC(C)(C)OC(=O)N[C@H]1CC(=O)c2ccccc2N(CC(=O)O)C1=O`, the GI50 in [8], in assay [1], in [2], in assay [3], in assay [4] and in assay [5] was > 100 µM (inactive) throughout. For the same molecule, the GI50 in [6] is > 100 µM (inactive).

In the case of `c1ccc2c(c1)CCC/C2=N\OCC1CO1` (configuration not stated), the GI50 in assay [8] was 73.3 µM (inactive); in [2], > 100 µM (inactive); in [3], > 100 µM (inactive); in assay [4], 64.3 µM (inactive); in assay [5] it was > 100 µM (inactive); in assay [6], > 100 µM (inactive). Moreover, the figures for the GI50 in assay [9] and in [7] were > 100 µM (inactive) and 37.6 µM (inactive), respectively.

The values are drawn from ChEMBL document CHEMBL1201862, “PubChem BioAssay data set” (2004).
